# In article PMC5442318, “Hundreds of dual-stage antimalarial molecules discovered by a functional gametocyte screen” (Nature Communications, 2017):
# Where two headings read alike, the source gives them in different places.
# Tests used:
# [1] = test system: P. falciparum stage V female gametocytes; assay: P. falciparum female gametocyte activation assay (Pf FGAA), 24 h or 48 h preincubation, Pfs25 expression readout; assay type: cell-based, Plasmodium falciparum NF54; details: P. falciparum female gametocytes, mean, read-out: Gametocytes mean Pf FGAA IC50
# Procedure: P. falciparum NF54 (originally isolated from an imported malaria case in the Netherlands in the 1980s; BEI Resources, cat. no. MRA-1000) asexual-stage culture was performed as described by Trager and Jensen[37]. Cultures synchronized at the ring stage were used to start gametocyte cultures (day 0) at 1% parasitaemia and 4% haematocrit in 200 ml final volume using culture bottles (Nalgene 3110-42, Thermo Scientific). Complete culture medium (RPMI 1640 supplemented with 25 mM HEPES, 50 μg ml^−1 hypoxanthine, 2 g l^−1 NaHCO3 and 10% pooled human male type A+ serum) was totally replaced daily for 14 days without fresh erythrocyte addition. Human serum was obtained from Interstate Blood Bank, A^+ serotype; no aspirin 2 h before drawing and no antimalarials 2 weeks before drawing. To ensure a stable temperature at 37 °C, which is crucial for gametocyte production and maturation, pre-warmed medium and a slide warmer (XH-2001, Premiere) were used. Under these conditions, parasitaemia reaches a peak of asexual stages on days 4–5, and the first gametocytes are differentiated in culture on day 6. Sexual-stage development was monitored microscopically by Giemsa-stained thin blood smears at day 7 (mainly asexual stages and stages I to III gametocytes) and day 14 (stages IV and V gametocytes).
# Cultures showing mainly stage V gametocytes were purified by differential sedimentation as previously reported. The gametocyte concentration was adjusted to plate 8,000 gametocytes per well (100 μl per well) in 384-well poly-D-lysine coated plates (781946, Greiner Bio-One) containing the compounds to test. […] Female gametocyte activation was then triggered by temperature drop and addition of xanthurenic acid (D120804, Sigma) as previously described. To detect female gametes, monoclonal anti-Pfs25 antibody[38] 4B7 (BEI Resources (formerly MR4), cat. no. MRA-315) conjugated to the Cy3 fluorochrome (GE Healthcare) was added to ookinete medium (RPMI 1640 supplemented with 25 mM HEPES, 50 μg ml^−1 hypoxanthine, 2 g l^−1 NaHCO3, 100 μM xanthurenic acid and 20% human serum) at a final concentration of 0.5 μg ml^−1. Activated cultures were then kept at 26 °C for 24 h protected from light, and image acquisition was performed in the Opera High-Content Screening System (PerkinElmer). Using × 10 air objective, five images per well were taken using 532 nm excitation. Images were analysed with a Columbus image data storage and analysis system (PerkinElmer) based on a script specifically designed for this assay that considers size, roundness and intensity of fluorescence of the female activated gametocytes.
# Compounds were dissolved in 100% DMSO and dispensed in the 384-well plates using an Echo-CRS liquid handler. Compounds were tested in 2–3 independent experiments. […] Based on that, Z′ factor was calculated for each plate and only those ones with values higher than 0.4 were considered acceptable for data analysis.
# Assay performance statistics, such as signal to background ratio, Z′ and robust 3 s.d. activity cut-off were calculated using templates in ActivityBase XE (IDBS, Guilford, Surrey, UK). Hit population analysis and visualization were conducted using Spotfire DecisionSite (Spotfire, Inc., Somerville, MA, USA). The pIC50 (−log IC50) values were obtained using the ActivityBase XE nonlinear regression function in the full curve analysis bundle.
# [2] = test system: P. falciparum stages IV–V gametocytes; assay: Gametocytocidal ATP-depletion assay (gametocyte ATP bioluminescence); assay type: cell-based, Plasmodium falciparum
# Procedure: In parallel, the set of confirmed hits from the Pf FGAA screen was cross-compared in the gametocyte ATP-depletion assay, at 2 μM single concentration (Supplementary Data 1). This assay monitors ATP levels as surrogate of gametocyte viability.
# ‘Viability' of mature gametocytes was determined using the gametocyte ATP bioluminiscence assay. Briefly, stages IV–V gametocyte cultures were double-purified by differential sedimentation followed by magnetic isolation. Then, parasites (50 μl per well containing 12,500 gametocytes) were added to compound pre-dispensed 384-well plates (781091, Greiner Bio-One) and incubated at 37 °C for 48 h (3% O2, 5% CO2 and 92% N2). BacTiter-Glo kit (G8231, Promega) was used to determine the ATP levels of ‘live' parasites according to the manufacturer's instructions. After reagent addition (50 μl per well), luminescence of the plates was measured using a microplate reader (HTS counter Victor, Wallac).
# HepG2 cells = assay: HepG2 cytotoxicity assay; assay type: cell-based; details: HepG2 cells; mean
# Procedure: After incubation, plates and CellTiter-Glo Reagent (G7571, Promega) were equilibrated at room temperature for 30 min before proceeding to develop the luminescent signal. Using a Multidrop combi dispenser, 25 μl per well of the signal developer were added to the plates and after 10 min at room temperature for stabilization, plates were read on the ViewLux system (Perkin Elmer).
# [3] = test system: P. falciparum asexual blood stages; details: TCAMS asexual blood stage data; ref 1 (Gamo, F. J. et al., Nature 465, 305-310, 2010); read-out: Pf Asexual blood stages XC50; cited from earlier work
Compound,IC50 [1],Gametocytes mean ATP inhibition at 2µM [2],HepG2 cells mean TOX50 (HepG2 cells),IC50 [3],IC50 ([1]; Plasmodium falciparum),"inhibition at 2 µM ([2]; Plasmodium falciparum, mean)"
CC(C)C1=CC(=NOS(=O)(=O)c2ccccc2)C=C(C(C)C)C1=O [TCMDC-124172],880 nM,65.50%,21.70 µM,710 nM,–,–
CCN1CCN(c2ccc(Nc3c4ccccc4nc4ccccc34)cc2)CC1 [TCMDC-124255],1000 nM,12.43%,4.57 µM,720 nM,–,–
Cl.c1ccc2c(NCCCCCCCCCNc3c4ccccc4nc4ccccc34)c3ccccc3nc2c1 [TCMDC-124286],1800 nM,51.90%,4.90 µM,300 nM,–,–
C=CCN(C(=O)c1ccc(Cl)c([N+](=O)[O-])c1)c1nc(-c2ccccc2)cs1 [TCMDC-124436],130 nM,100.64%,>100 µM,400 nM,–,–
CC(C)(C)Nc1cc(C2CC2)nc(-c2ccccn2)n1 [TCMDC-124453],100 nM,81.87%,>100 µM,680 nM,–,–
Cn1c(Sc2ncnc3sccc23)nc2ccccc21 [TCMDC-124514],1250 nM,17.03%,>100 µM,190 nM,–,–
Cc1sc2ncnc(Sc3nnc(N)s3)c2c1C [TCMDC-124542],770 nM,30.31%,36.31 µM,400 nM,–,–
COc1ccc(OC)c(-c2cccc(-c3cccc(NC(=O)c4ccc([N+](=O)[O-])o4)c3)n2)c1 [TCMDC-124799],960 nM,25.78%,3.63 µM,370 nM,–,–
O=C(c1ccc([N+](=O)[O-])o1)N1CCC(Cc2ccc(C(F)(F)F)cc2)CC1 [TCMDC-124805],160 nM,93.11%,27.05 µM,170 nM,–,–
Cc1sc2nc(CN3CCCC3)nc(-n3c(NCCO)nc4ccccc43)c2c1C [TCMDC-124811],7050 nM,42.91%,25.73 µM,1240 nM,–,–
CCOc1ccc2nc3cc(NC(=O)c4ccco4)ccc3c(N)c2c1 [TCMDC-125004],4550 nM,91.77%,25.15 µM,800 nM,–,–
Cc1ccccc1OCC(O)CNC1CCC(NCC(O)COc2ccccc2C)CC1 (stereo not drawn) [TCMDC-125142],1110 nM,39.31%,4.07 µM,1190 nM,–,–
CC(Nc1cc(-c2ccccn2)nc(-c2ccccn2)n1)c1ccccc1 (stereo not drawn) [TCMDC-125420],210 nM,86.62%,6.18 µM,450 nM,–,–
c1ccc(CNc2cc(-c3ccccn3)nc(-c3ccccn3)n2)cc1 [TCMDC-125421],320 nM,76.15%,13.04 µM,300 nM,–,–
Cc1c(Cl)cccc1N=C(S)NN=Cc1ccccn1 [TCMDC-125487],28 nM,74.71%,>100 µM,600 nM,–,–
Fc1ccc(NC(S)=NN=Cc2ccccn2)cc1 [TCMDC-125521],27.1 nM,85.73%,>100 µM,770 nM,–,–
SC(=Nc1ccc(Cl)c(Cl)c1)NN=Cc1ccccn1 [TCMDC-125522],80 nM,64.79%,3.47 µM,770 nM,–,–
CC[C@H]1CN2CCc3cc(OC)c(OC)cc3[C@@H]2C[C@@H]1C[C@H]1NCCc2cc(OC)c(OC)cc21 [TCMDC-125531],–,–,9.77 µM,210 nM,2730 nM,56%
c1ccc2sc(Sc3ncnc4sccc34)nc2c1 [TCMDC-125539],140 nM,69.68%,>100 µM,730 nM,–,–
Fc1ccc2nc(Nc3nc(-c4ccccn4)cs3)sc2c1 [TCMDC-125540],54.3 nM,71.05%,58.31 µM,560 nM,–,–
Oc1c(C(Nc2ccccn2)c2ccc(Cl)cc2Cl)ccc2cccnc12 (stereo not drawn) [TCMDC-125559],1140 nM,84.30%,12.74 µM,890 nM,–,–
O=C(Nc1cc(C(F)(F)F)cc(C(F)(F)F)c1)Nc1ccc(Cl)c(Cl)c1 [TCMDC-125592],1430 nM,-6.96%,3.07 µM,240 nM,–,–
CCCC(N)C(=O)NC1CCN(c2c(F)c(N)c3c(=O)c(C(=O)O)cn4c3c2Oc2ccccc2-4)C1.Cl (stereo not drawn) [TCMDC-125701],1140 nM,0.82%,1.61 µM,360 nM,–,–
ON=C(c1nc2ccccc2[nH]1)c1nc2ccccc2[nH]1 [TCMDC-125758],330 nM,89.28%,4.96 µM,1090 nM,–,–
c1ccc(-c2nc(NC3CCCCC3)cc(C3CC3)n2)nc1 [TCMDC-125825],160 nM,85.03%,48.99 µM,730 nM,–,–
CC(C)(C)c1cc(NC2CC2)nc(-c2ccccn2)n1 [TCMDC-125826],120 nM,84.45%,>100 µM,720 nM,–,–
COc1ccc2nc3cc(Cl)ccc3c(N)c2c1.Cl [TCMDC-125835],670 nM,101.44%,1.57 µM,170 nM,–,–
CCC1CN2CCc3cc(OC)c(OC)cc3C2CC1CC1NCCc2cc(OC)c(OC)cc21 (stereo not drawn) [TCMDC-125849],1820 nM,60.00%,2.24 µM,150 nM,–,–
COc1ccc(CCNCCCCCCNCCc2ccc(-c3ccccc3)cc2)cc1OC.Cl [TCMDC-131267],1260 nM,51.20%,6.90 µM,960 nM,–,–
Br.Oc1ccc(CCNCCCCCCNCCc2ccc(-c3ccccc3)cc2)cc1O [TCMDC-131268],10900 nM,64.17%,13.18 µM,600 nM,–,–
